Experimental data published in patent publication US10077288B2, “Hydroxystatin derivatives for the treatment of arthrosis” (Merck Patent GmbH, priority 2012, dated 2018).
*1 amine or outer side, *2 acyl side, *3 side chain or, on linkers, in order; H or OH if unused. Where a SMILES comes first, the peptide text is derived from it. [ ]: non-standard residue; d: D form. The star is where a group is joined. Ahppa(3S,4S) = O=C(C[C@H](O)[C@H](Cc1ccccc1)N[*:1])[*:2]; PhAc = O=C(Cc1ccccc1)*

Target: T1, cathepsin D isolated from the human liver (Homo sapiens, UniProt P07339)
T1 construct: cathepsin D isolated from the human liver (Sigma-Aldrich); purchased Sigma-Aldrich; host or cells: human liver (tissue-derived, not recombinant)
T1 sequence (P07339 65-161 limits assumed): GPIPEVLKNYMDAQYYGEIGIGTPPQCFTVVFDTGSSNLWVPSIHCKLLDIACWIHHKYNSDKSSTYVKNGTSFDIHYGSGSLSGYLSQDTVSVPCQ
T1 sequence (P07339 169-412 limits assumed): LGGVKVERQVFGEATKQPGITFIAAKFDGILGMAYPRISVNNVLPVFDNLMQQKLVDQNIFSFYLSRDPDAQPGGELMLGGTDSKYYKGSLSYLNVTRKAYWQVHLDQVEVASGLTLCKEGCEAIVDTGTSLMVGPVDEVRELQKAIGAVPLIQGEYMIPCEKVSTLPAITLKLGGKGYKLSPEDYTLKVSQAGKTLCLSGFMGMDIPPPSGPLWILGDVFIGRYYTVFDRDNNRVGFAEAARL
Experiment: In-vitro fluorescence assay for identification of cathepsin D inhibitors
Type: biochemical
Conditions: human liver cathepsin D 1.4 nM, pH 5.5; read-out: CatD assay IC50-(M)
Experimental: EXAMPLE 4: IN-VITRO FLUORESCENCE ASSAY FOR IDENTIFICATION OF CATHEPSIN D INHIBITORS
In order to identify modulators of cathepsin D activity, a continuous enzymatic test was carried out with a synthetic peptide which carries a fluorescent group (MCA=(7-methoxycoumarin-4-yl)acetyl) which is quenched by energy transfer from a Dpn (2,4 dinitrophenyl) group on the same molecule, in Greiner 384-well nb microtitre plates. Cleavage of the peptidic substrate by cathepsin D causes an increase in the fluorescence intensity. In order to determine the efficacy of substances, the time-dependent increase in the fluorescence intensity in the presence of the substance was compared with the time-dependent increase in fluorescence in the absence of substances. The reference substance used was pepstatin A (Sigma-Aldrich). The substrate used was MCA-GKPILFFRLK(Dnp)d-R—NH2 (Enzo Life Sciences, Lörrach). The enzyme employed was cathepsin D isolated from the human liver (Sigma-Aldrich) in a final concentration of 1.4 nM. The test was carried out in 100 mM sodium acetate buffer, 1.25% (v/v) of DMSO, 0.25% (w/v) of Chaps, pH 5.5. 2 μl of each substance solution with serially diluted substance concentration were added to in each case 4 μl of cathepsin D solution and incubated at room temperature for 10 min. The reaction was started by addition of 2 μl of substrate solution (final concentration 5 μM). After carrying out a starting-point fluorescence measurement (excitation wavelength 340 nm/emission wavelength 450 nm) using an Envision multilabel reader (Perkin Elmer), the reaction was incubated at room temperature for 60 min. The amount of peptide fragment cleaved off during the reaction time was subsequently measured by determination of the increase in the fluorescence intensity at 450 nm (excitation wavelength 340 nm).

Row | Structure (SMILES) | IC50
1 | CC[C@H](C)[C@H](NC(=O)C[C@H](O)[C@H](Cc1ccccc1)NC(=O)[C@@H](NC(=O)Cc1ccccc1OC)C(C)C)C(=O)N[C@H](C(=O)OCc1ccccc1)C(C)C [Compound 22, benzly (S)-2-[(2S,3S)-2-((3S,4S)-3-hydroxy-4-{(S)-2-[2-(2-methoxy-phenyl)acetylamino]-3-methylbutyrylamino}-5-phenylpentanoylamino)-3-methylpentanoylamino]-3-methylbutyrate] | 2.1e-07 M
2 | CC[C@H](C)[C@H](NC(=O)C[C@H](O)[C@H](Cc1ccccc1)NC(=O)[C@@H](NC(=O)CCCc1ccccc1)C(C)C)C(=O)N[C@H](C(=O)OCc1ccccc1)C(C)C [Compound 2, benzly (S)-2-((2S,3S)-2-{(3S,4S)-3-hydroxy-4-[(S)-3-methyl-2-(4-phenylbutyrylamino)butyrylamino]-5-phenylpentanoylamino}-3-methylpentanoylamino)-3-methylbutyrate] | 7.1e-08 M
3 | CC[C@H](C)[C@H](NC(=O)C[C@H](O)[C@H](Cc1ccccc1)NC(=O)[C@@H](NC(=O)c1cccc(-c2ccccc2)c1)C(C)C)C(=O)N[C@H](C(=O)O)C(C)C [Compound 31, (S)-2-[(2S,3S)-2-((3S,4S)-4-{(S)-2-[(biphenyl-3-carbonyl)amino]-3-methylbutyrylamino}-3-hydroxy-5-phenylpentanoylamino)-3-methylpentanoylamino]-3-methylbutyric acid] | 1.6e-07 M
4 | CC[C@H](C)[C@H](NC(=O)C[C@H](O)[C@H](Cc1ccccc1)NC(=O)[C@@H](NC(=O)[C@@H](O)c1ccccc1)C(C)C)C(=O)N[C@H](C(=O)OCc1ccccc1)C(C)C [Compound 35, benzly (S)-2-((2S,3S)-2-{(3S,4S)-3-hydroxy-4-[(S)-2-((S)-2-hydroxy-2-phenylacetylamino)-3-methylbutyrylamino]-5-phenylpentanoylamino}-3-methylpentanoylamino)-3-methylbutyrate] | 5.8e-07 M
5 | CC[C@H](C)[C@H](NC(=O)C[C@H](O)[C@H](Cc1ccccc1)NC(=O)[C@@H](NC(=O)Cc1cccc2ccccc12)C(C)C)C(=O)N[C@H](C(=O)O)C(C)C [Compound 30, (S)-2-((2S,3S)-2-{(3S,4S)-3-hydroxy-4-[(S)-3-methyl-2-(2-naphthalen-1-ylacetylamino)butyrylamino]-5-phenylpentanoylamino}-3-methylpentanoylamino)-3-methylbutyric acid] | 8.5e-08 M
6 | CC[C@H](C)[C@H](NC(=O)C[C@H](O)[C@H](Cc1ccccc1)NC(=O)[C@@H](NC(=O)Cc1ccc2ccccc2c1)C(C)C)C(=O)N[C@H](C(=O)OCc1ccccc1)C(C)C [Compound 16, benzly (S)-2-((2S,3S)-2-{(3S,4S)-3-hydroxy-4-[(S)-3-methyl-2-(2-naphthalen-2-ylacetylamino)butyrylamino]-5-phenylpentanoylamino}-3-methylpentanoylamino)-3-methylbutyrate] | 1.5e-07 M
7 | CC[C@H](C)[C@H](NC(=O)C[C@H](O)[C@H](Cc1ccccc1)NC(=O)[C@@H](NC(=O)[C@@H](O)c1ccccc1)C(C)C)C(=O)N[C@H](C(=O)O)C(C)C [Compound 37, (S)-2-((2S,3S)-2-{(3S,4S)-3-hydroxy-4-[(S)-2-((S)-2-hydroxy-2-phenylacetylamino)-3-methylbutyrylamino]-5-phenylpentanoylamino}-3-methylpentanoylamino)-3-methylbutyric acid] | 3.1e-07 M
8 | CC[C@H](C)[C@H](NC(=O)C[C@H](O)[C@H](Cc1ccccc1)NC(=O)[C@@H](NC(=O)[C@H](CC(C)C)NC(=O)CC(C)C)C(C)C)C(=O)NC(C)(C)CCO [Compound 49, N-[(1S,2S)-1-(3-hydroxy-1,1-dimethylpropylcarbamoyl)-2-methylbutyl]-(3S,4S)-3-hydroxy-4-{(S)-3-methyl-2-[(S)-4-methyl-2-(3-methylbutyrylamino)pentanoylamino]butyrylamino}-5-phenylpentanamide] | 2.1e-10 M
9 | CC[C@H](C)[C@H](NC(=O)C[C@H](O)[C@H](Cc1ccccc1)NC(=O)[C@@H](NC(=O)[C@H](CC(C)C)NC(=O)Cc1ccccc1)C(C)C)C(=O)N[C@H](C(=O)O)C(C)C [Compound 45, (S)-2-((2S,3S)-2-{(3S,4S)-3-hydroxy-4-[(S)-3-methyl-2-((S)-4-methyl-2-phenylacetylaminopentanoylamino)butyrylamino]-5-phenylpentanoylamino}-3-methylpentanoylamino)-3-methylbutyric acid] (PhAc-LV[Ahppa(3S,4S)]IV-OH) | 3.5e-10 M
10 | CC[C@H](C)[C@H](NC(=O)C[C@H](O)[C@H](Cc1ccccc1)NC(=O)[C@@H](NC(=O)C(c1ccccc1)c1ccccc1)C(C)C)C(=O)N[C@H](C(=O)OCc1ccccc1)C(C)C [Compound 32, benzyl (S)-2-{(2S,3S)-2-[(3S,4S)-4-((S)-2-diphenylacetylamino-3-methylbutyrylamino)-3-hydroxy-5-phenylpentanoylamino]-3-methylpentanoylamino}-3-methylbutyrate] | 3.2e-07 M
11 | CCOc1cccc(CC(=O)N[C@H](C(=O)N[C@@H](Cc2ccccc2)[C@@H](O)CC(=O)N[C@H](C(=O)N[C@H](C(=O)OCc2ccccc2)C(C)C)[C@@H](C)CC)C(C)C)c1 [Compound 12, benzly (S)-2-[(2S,3S)-2-((3S,4S)-4-{(S)-2-[2-(3-ethoxyphenyl)-acetylamino]-3-methylbutyrylamino}-3-hydroxy-5-phenylpentanoylamino)-3-methylpentanoylamino]-3-methylbutyrate] | 2.5e-08 M
12 | CC[C@H](C)[C@H](NC(=O)C[C@H](O)[C@H](Cc1ccccc1)NC(=O)[C@@H](NC(=O)[C@H](CC(C)C)NC(=O)CC(C)C)C(C)C)C(=O)NC1CCCC1 [Compound 46, N-((1S,2S)-1-cyclopentylcarbamoyl-2-methylbutyl)-(2S,5S)-3-hydroxy-4-{(S)-3-methyl-2-[(S)-4-methyl-2-(3-methylbutyrylamino)-pentanoylamino]butyrylamino}-5-phenylpentanamide] | 1.8e-09 M
13 | CC[C@H](C)[C@H](NC(=O)C[C@H](O)[C@H](Cc1ccccc1)NC(=O)[C@@H](NC(=O)Cc1cccc(OCCN)c1)[C@@H](C)CC)C(=O)N[C@H](C(=O)O)C(C)C [Compound 41, (S)-2-{(2S,3S)-2-[(3S,4S)-4-((S)-2-{2-[3-(2-aminoethoxy)phenyl]-acetylamino}-3-methyl-1-(S)-oxopentylamino)-3-hydroxy-5-phenylpentanoylamino]-3-methylpentanoylamino}-3-methylbutyric acid] | 4.8e-07 M
14 | CC[C@H](C)[C@H](NC(=O)C[C@H](O)[C@H](Cc1ccccc1)NC(=O)[C@@H](NC(=O)Cc1ccc(OC)c(OC)c1)C(C)C)C(=O)N[C@H](C(=O)O)C(C)C [Compound 14, (S)-2-[(2S,3S)-2-((3S,4S)-4-{(S)-2-[2-(3,4-dimethoxyphenyl)acetylamino]-3-methylbutyrylamino}-3-hydroxy-5-phenylpentanoylamino)-3-methylpentanoylamino]-3-methylbutyric acid] | 1.5e-07 M
15 | CCC(CC)NC(=O)[C@@H](NC(=O)C[C@H](O)[C@H](Cc1ccccc1)NC(=O)[C@@H](NC(=O)[C@H](CC(C)C)NC(=O)CC(C)C)C(C)C)C(C)C [Compound 47, N—[(S)-1-(1-ethylpropylcarbamoyl)-2-methylpropyl]-(3S,4S)-3-hydroxy-4-{(S)-3-methyl-2-[(S)-4-methyl-2-(3-methylbutyrylamino)-pentanoylamino]butyrylamino}-5-phenylpentanamide] | 6.5e-10 M
16 | CC[C@H](C)[C@H](NC(=O)C[C@H](O)[C@H](Cc1ccccc1)NC(=O)[C@@H](NC(=O)C(C)(C)Oc1ccc2ccccc2c1)C(C)C)C(=O)N[C@H](C(=O)O)C(C)C [Compound 6, (S)-2-[(2S,3S)-2-((3S,4S)-3-hydroxy-4-{(S)-3-methyl-2-[2-methyl-2-(naphthalen-2-yloxy)propionylamino]butyrylamino}-5-phenylpentanoylamino)-3-methylpentanoylamino]-3-methylbutyric acid] | 2.3e-07 M
17 | CCC(CC)NC(=O)[C@@H](NC(=O)C[C@H](O)[C@H](Cc1ccccc1)NC(=O)[C@@H](NC(=O)[C@H](CC(C)C)NC(=O)Cc1ccccc1)C(C)C)[C@@H](C)CC [Compound 43, N-[(1S,2S)-1-(1-ethylpropylcarbamoyl)-2-methylbutyl]-(2S,5S)-3-hydroxy-4-[(S)-3-methyl-2-((S)-4-methyl-2-phenylacetylaminopentanoylamino)-1-oxobutylamino]-5-phenylpentanamide] | 3.5e-09 M
18 | CC[C@H](C)[C@H](NC(=O)C[C@H](O)[C@H](Cc1ccccc1)NC(=O)[C@@H](NC(=O)Cc1cccc(Oc2ccccc2)c1)C(C)C)C(=O)N[C@H](C(=O)OCc1ccccc1)C(C)C [Compound 19, benzly (S)-2-[(2S,3S)-2-((3S,4S)-3-hydroxy-4-{(S)-3-methyl-2-[2-(3-phenoxyphenyl)acetylamino]butyrylamino}-5-phenylpentanoylamino)-3-methylpentanoylamino]-3-methylbutyrate] | 4e-08 M
